Laboratory results: patent US12629387B2, “Composition of antiviral agent for use in prophylactic or post-exposure treatment of infectious or respiratory diseases” (InspirMed Corp., priority 2020, dated 2026)

Assays:
[1] = Pharmacokinetics and tissue distribution study of HCQ in SD rats after single-dose IV/IT Free HCQ or IT TLC19 (Study No. PK20021); conditions: for concentration at 24 h / AUC(0-t) / Cmax: Sprague-Dawley, rat, in vivo; for concentration at 24 h: 0.59 mg/animal; for AUC(0-t) / Cmax: 0.59 mg; for Cmax: Cmax of HCQ; for Cmax / Tmax of HCQ / AUC0-72 of HCQ: Free HCQ, 0.590 mg/animal; for Tmax of HCQ: median; for mean HCQ concentration in lung, starting value of decline: start of the first 24 hours post-dose
[2] = test system: SARS-CoV-infected human airway epithelial (HAE) cells; conditions: read-out: in vitro antiviral EC50; cited from earlier work

CCN(CCO)CCCC(C)Nc1ccnc2cc(Cl)ccc12 (stereo not drawn) [Free HCQ, hydroxychloroquine]
concentration at 24 h [1]: 2160 ng/g | AUC(0-t) ([1]; inhaled or intranasal): 2260 ng·h/mL | Cmax ([1]; inhaled or intranasal, rat blood, IT administration): 477 ng/mL | Cmax ([1]; inhaled or intranasal, rat heart, IT administration): 3800 ng/g | Cmax ([1]; inhaled or intranasal, rat lung, IT administration): 47800 ng/g | AUC(0-t) ([1]; iv): 2330 ng·h/mL | Cmax ([1]; iv, rat blood, IV injection): 433 ng/mL | Cmax ([1]; iv, rat heart, IV injection): 4500 ng/g | Cmax ([1]; iv, rat lung, IV injection): 9400 ng/g | concentration at 24 h ([1]; iv): 3770 ng/g | overall systemic exposures (Cmax and AUC), IV group compared with IT group ([1]; rat blood, Free HCQ 0.590 mg/animal): similar | Tmax of HCQ ([1]; rat blood, IT administration): 15 min | Tmax of HCQ ([1]; rat blood, IV injection): 15 min | AUC0-72 of HCQ ([1]; rat heart, IT administration): 64.2 µg·h/g | Tmax of HCQ ([1]; rat heart, IT administration): 15 min | AUC0-72 of HCQ ([1]; rat heart, IV injection): 67.2 µg·h/g | Tmax of HCQ ([1]; rat heart, IV injection): 15 min | mean HCQ concentration in lung, starting value of decline ([1]; rat lung, Free HCQ IT group): 47.8 µg/g | mean HCQ concentration in lung, starting value of decline ([1]; rat lung, Free HCQ IV group): 9.4 µg/g | AUC0-72 of HCQ ([1]; rat lung, IT administration): 329 µg·h/g | Tmax of HCQ ([1]; rat lung, IT administration): 15 min | AUC0-72 of HCQ ([1]; rat lung, IV injection): 252 µg·h/g | Tmax of HCQ ([1]; rat lung, IV injection): 15 min

N#C[C@@]1(c2ccc3c(N)ncnn23)O[C@H](CO)[C@@H](O)[C@H]1O [GS-441524, (2R,3R,4S,5R)-2-(4-aminopyrrolo[2,1-f][1,2,4]triazin-7-yl)-3,4-dihydroxy-5-(hydroxymethyl) oxolane-2-carbonitrile]
EC50 [2]: 180 nM
